# Molecular target: T1, SHP2 (Homo sapiens, UniProt Q06124)
# T1 sequence (Q06124 1-593): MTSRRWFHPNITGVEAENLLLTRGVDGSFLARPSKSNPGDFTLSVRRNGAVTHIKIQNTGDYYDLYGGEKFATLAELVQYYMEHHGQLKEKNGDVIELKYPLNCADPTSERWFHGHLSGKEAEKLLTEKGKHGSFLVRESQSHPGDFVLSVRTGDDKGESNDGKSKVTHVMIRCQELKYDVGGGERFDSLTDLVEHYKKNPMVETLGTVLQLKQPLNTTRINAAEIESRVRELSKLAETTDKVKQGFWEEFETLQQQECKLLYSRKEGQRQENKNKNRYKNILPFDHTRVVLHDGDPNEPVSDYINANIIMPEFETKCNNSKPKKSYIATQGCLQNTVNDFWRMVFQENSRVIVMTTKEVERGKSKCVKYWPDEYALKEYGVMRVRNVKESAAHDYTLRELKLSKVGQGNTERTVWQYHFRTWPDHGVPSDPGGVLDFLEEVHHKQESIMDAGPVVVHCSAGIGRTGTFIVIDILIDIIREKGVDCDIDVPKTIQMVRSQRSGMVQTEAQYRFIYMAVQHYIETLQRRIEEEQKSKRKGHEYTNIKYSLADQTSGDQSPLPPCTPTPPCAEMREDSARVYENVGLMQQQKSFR
# Assay: SHP2 allosteric inhibitor enzyme activity assay (DiFMUP fluorescence)
# Type: biochemical
# Conditions: class symbols
# Method in brief: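 SHP2 activated by 0.5 μM IRS1_pY1172(dPEG8)pY1222 peptide, 0.2 ng enzyme per well, 1 h at room temperature with compound (1 μM top, 3-fold series), then DiFMUP substrate 1 h. Buffer: 60 mM HEPES, 75 mM NaCl, 75 mM KCl, 0.05% BRIJ-35, 1 mM EDTA, 5 mM DTT. Fluorescence ex 340/em 450 nm; IC50 by variable-slope fit.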
row,IC50 [nM],SMILES
1,20 to 60,"N[C@@H]1Cn2nccc2C12CCN(c1nc3[nH]nc(C4(c5ccccc5)CC4)c3c(=O)[nH]1)CC2 [Example 199, (S)-6-(5′-amino-5′,6′-dihydrospiro[piperidine-4,4′-pyrrolo[1,2-b]pyrazol]-1-yl)-3-(1-phenylcyclopropyl)-1,5-dihydro-4H-pyrazolo[3,4-d]pyrimidin-4-one]"
2,> 60,"CC1(C)CC1(c1ccccc1)c1n[nH]c2nc(N3CCC4(CC3)Cc3ccccc3[C@H]4N)[nH]c(=O)c12 (stereo partly drawn) [Example 5, 6-((S)-1-amino-1,3-dihydrospiro[indene-2,4′-piperidin]-1′-yl)-3-(2,2-dimethyl-1-phenylcyclopropyl)-1,5-dihydro-4H-pyrazolo[3,4-d]pyrimidin-4-one]"
3,≤ 20,"CC1(C)C=C(c2n[nH]c3nc(N4CCC5(CC4)Cc4ccccc4[C@H]5N)[nH]c(=O)c23)c2cc(C#N)cnc2C1 [Example 163, (S)-5-(6-(1-amino-1,3-dihydrospiro[indene-2,4′-piperidin]-1′-yl)-4-oxo-4,5-dihydro-1H-pyrazolo[3,4-d]pyrimidin-3-yl)-7,7-dimethyl-7,8-dihydroquinoline-3-carbonitrile]"
4,≤ 20,"N[C@@H]1c2ccccc2CC12CCN(c1nc3[nH]nc(-c4cc(=O)oc5ccccc45)c3c(=O)[nH]1)CC2 [Example 174, (S)-6-(1-amino-1,3-dihydrospiro[indene-2,4′-piperidin]-1′-yl)-3-(2-oxo-2H-chromen-4-yl)-1,5-dihydro-4H-pyrazolo[3,4-d]pyrimidin-4-one]"
5,≤ 20,"N[C@@H]1c2ccccc2CC12CCN(c1nc3[nH]nc(C4(c5cccc(O)c5Cl)CC4)c3c(=O)[nH]1)CC2 [Example 50, (S)-6-(1-amino-1,3-dihydrospiro[indene-2,4′-piperidin]-1′-yl)-3-(1-(2-chloro-3-hydroxyphenyl)cyclopropyl)-1,5-dihydro-4H-pyrazolo[3,4-d]pyrimidin-4-one]"
6,20 to 60,"CC1(C)C=C(c2n[nH]c3nc(N4CCC5(CC4)Cc4ccccc4[C@H]5N)[nH]c(=O)c23)c2sc(N)nc2C1 [Example 159, (S)-6-(1-amino-1,3-dihydrospiro[indene-2,4′-piperidin]-1′-yl)-3-(2-amino-5,5-dimethyl-4,5-dihydrobenzo[d]thiazol-7-yl)-1,5-dihydro-4H-pyrazolo[3,4-d]pyrimidin-4-one]"
7,20 to 60,"C[C@@H]1OCC2(CCN(c3nc4[nH]nc(C5(c6cccc(Br)c6)CC5)c4c(=O)[nH]3)CC2)[C@@H]1N [Example 317, 6-((3S,4S)-4-amino-3-methyl-2-oxa-8-azaspiro[4.5]decan-8-yl)-3-(1-(3-bromophenyl)cyclopropyl)-1,5-dihydro-4H-pyrazolo[3,4-d]pyrimidin-4-one]"
8,≤ 20,"N[C@@H]1c2ccccc2CC12CCN(c1nc3[nH]nc(C4(c5cnn(Cc6ccccc6)c5)CC4)c3c(=O)[nH]1)CC2 [Example 57, (S)-6-(1-amino-1,3-dihydrospiro[indene-2,4′-piperidin]-1′-yl)-3-(1-(1-benzyl-1H-pyrazol-4-yl)cyclopropyl)-1,5-dihydro-4H-pyrazolo[3,4-d]pyrimidin-4-one]"
9,> 60,"N[C@@H]1c2ccccc2CC12CCN(c1nc3[nH]nc(C4(c5ccccc5)CC4(Cl)Cl)c3c(=O)[nH]1)CC2 (stereo partly drawn) [Example 7, 6-((S)-1-amino-1,3-dihydrospiro[indene-2,4′-piperidin]-1′-yl)-3-(2,2-dichloro-1-phenylcyclopropyl)-1,5-dihydro-4H-pyrazolo[3,4-d]pyrimidin-4-one]"
10,20 to 60,"C[C@@H]1OCC2(CCN(c3ncc4c(C5(c6ccccc6)CC5)n[nH]c4n3)CC2)[C@@H]1N [Example 267, (3S,4S)-3-methyl-8-(3-(1-phenylcyclopropyl)-1H-pyrazolo[3,4-d]pyrimidin-6-yl)-2-oxa-8-azaspiro[4.5]decan-4-amine]"
11,≤ 20,N[C@@H]1c2ccccc2CC12CCN(c1nc3[nH]nc(C4(c5ccccc5)CC4)c3c3nncn13)CC2 [Example 3]
12,> 60,"C[C@@H]1OCC2(CCN(c3ncc(C4(c5ccccc5)CC4)nc3CO)CC2)[C@@H]1N [Example 260, (3-((3S,4S)-4-amino-3-methyl-2-oxa-8-azaspiro[4.5]decan-8-yl)-6-(1-phenylcyclopropyl)pyrazin-2-yl)methanol]"
13,≤ 20,"N[C@@H]1c2ccccc2CC12CCN(c1nc3[nH]nc(C4(c5cccc6c5CC(=O)N6)CC4)c3c(=O)[nH]1)CC2 [Example 82, (S)-6-(1-amino-1,3-dihydrospiro[indene-2,4′-piperidin]-1′-yl)-3-(1-(2-oxoindolin-4-yl)cyclopropyl)-1,5-dihydro-4H-pyrazolo[3,4-d]pyrimidin-4-one]"
14,20 to 60,"Cc1cc(C(F)F)c2c(n1)CCC=C2c1n[nH]c2nc(N3CCC4(CC3)Cc3ccccc3[C@H]4N)[nH]c(=O)c12 [Example 142, (S)-6-(1-amino-1,3-dihydrospiro[indene-2,4′-piperidin]-1′-yl)-3-(4-(difluoromethyl)-2-methyl-7,8-dihydroquinolin-5-yl)-1,5-dihydro-4H-pyrazolo[3,4-d]pyrimidin-4-one]"
15,≤ 20,"N[C@@H]1c2ccccc2CC12CCN(c1nc3[nH]nc(C4=CCC5(CC5)c5ccccc54)c3c(=O)[nH]1)CC2 [Example 132, (S)-6-(1-amino-1,3-dihydrospiro[indene-2,4′-piperidin]-1′-yl)-3-(2′H-spiro[cyclopropane-1,1′-naphthalen]-4′-yl)-1,5-dihydro-4H-pyrazolo[3,4-d]pyrimidin-4-one]"
16,≤ 20,"COCCOc1cccc(C2(c3n[nH]c4nc(N5CCC6(CC5)Cc5ccccc5[C@H]6N)[nH]c(=O)c34)CC2)c1 [Example 44, (S)-6-(1-amino-1,3-dihydrospiro[indene-2,4′-piperidin]-1′-yl)-3-(1-(3-(2-methoxyethoxy)phenyl)cycloprop-yl)-1,5-dihydro-4H-pyrazolo[3,4-d]pyrimidin-4-one]"
17,20 to 60,"N[C@@H]1c2ccccc2CC12CCN(c1nc3[nH]nc(C4=CCCc5ncc(C(F)(F)F)cc54)c3c(=O)[nH]1)CC2 [Example 138, (S)-6-(1-amino-1,3-dihydrospiro[indene-2,4′-piperidin]-1′-yl)-3-(3-(trifluoromethyl)-7,8-dihydroquinolin-5-yl)-1,5-dihydro-4H-pyrazolo[3,4-d]pyrimidin-4-one]"
18,≤ 20,"N[C@@H]1c2ccccc2CC12CCN(c1nc3[nH]nc(C4=CCOc5ncccc54)c3c(=O)[nH]1)CC2 [Example 116, (S)-6-(1-amino-1,3-dihydrospiro[indene-2,4′-piperidin]-1′-yl)-3-(2H-pyrano[2,3-b]pyridin-4-yl)-1,5-dihydro-4H-pyrazolo[3,4-d]pyrimidin-4-one]"
19,20 to 60,"N[C@@H]1c2ccccc2CC12CCN(c1nc3[nH]nc([C@H]4C[C@H]4c4ccccc4)c3c3nncn13)CC2 [Example 107, (S)-1′-(9-((1S,2R)-2-phenylcyclopropyl)-7H-pyrazolo[4,3-e][1,2,4]triazolo[4,3-c]pyrimidin-5-yl)-1,3-dihydrospiro[indene-2,4′-piperidin]-1-amine]"
20,20 to 60,"COc1cccc(C2(c3n[nH]c4nc(N5CCC6(CC5)CO[C@@H](C)[C@H]6N)[nH]c(=O)c34)CC2)c1 [Example 305, 6-((3S,4S)-4-amino-3-methyl-2-oxa-8-azaspiro[4.5]decan-8-yl)-3-(1-(3-methoxyphenyl)cyclopropyl)-1,5-dihydro-4H-pyrazolo[3,4-d]pyrimidin-4-one]"

# From US20230192705A1, “SHP2 INHIBITORS, COMPOSITIONS AND USES THEREOF” (Betta Pharmaceuticals Co., Ltd, priority 2020, published 2023)
